Values quoted from earlier work, collected in patent US20050090554A1, “Treatment of gastroparesis and nonulcer dyspepsia with GABAB agonists” (priority 2003, published 2005).

Key:
[1] = with the exception of the upper small intestine (carrier-mediated transport)
[2] = administered isomer
[3] = compared with the S-isomer

| SMILES | permeability in the GI tract [1] | arterial blood pressure and heart rate [2] | half-life [3] | metabolic clearance [3] | systemic exposure [3] |
| --- | --- | --- | --- | --- | --- |
| NCC(CC(=O)O)c1ccc(Cl)cc1 (racemic) [baclofen, 4-amino-3-(p-chlorophenyl)-butyric acid] | poor permeability |  |  |  |  |
| NC[C@H](CC(=O)O)c1ccc(Cl)cc1 [(R)-baclofen] |  | opposite effects | longer | lower | higher |
| NC[C@@H](CC(=O)O)c1ccc(Cl)cc1 [(S)-baclofen] |  | decrease |  |  |  |
